Tested on: wild type B. pumilus
Assay: Activity of resting cell in aqueous organic two-phase system (biotransformation of FA to VG)
Conditions: two-phase bioconversion, B. pumilus whole cells
Procedure: The cells were resuspended in 1 ml of 0.1 M phosphate buffer to a concentration (OD600=5) and mixed with an equal volume of organic solvent in flasks. Biotransformation was started at an initial FA concentration of 36 mM. The experiments were performed under the same conditions as in the mono-phase biotransformation process (Example 1).

## CCO [Ethanol]
  Toxicity of solvent to the cells: toxic to the cells

## CCOC(C)=O [Ethyl acetate]
  Toxicity of solvent to the cells: toxic to the cells
